From patent US11661437B2, “Steroid derivative regulators, method for preparing the same, and uses thereof” (priority 2018, dated 2023)
Where two headings read alike, the source gives them in different places.

Columns and labels:
[1] = Pharmacokinetic assay in Balb/c mice (plasma and brain tissue); type: in vivo; details: male, mouse, po
Experimental: Balb/c mice were used as test animals. The pharmacokinetic behavior in mice (plasma and brain tissue) of the compounds of Example 2, Example 5, Example 7, Example 12, Example 18, Example 23, Example 26, Example 38, Example 41, Example 50, Example 51 and Example 66 orally administrated at a dose of 5 mg/kg was studied.
Each group had 24 male Balb/c mice. After an overnight fast, Balb/c mice were administrated p.o. with the test compound at an administration dose of 5 mg/kg and an administration volume of 10 mL/kg.
0.2 ml of blood was taken from the heart before administration and at 0, 0.5, 1, 2, 4, 6, 8 and 24 hours after administration. The samples were stored in EDTA-K2 tubes, and centrifuged for 6 minutes at 4° C., 6000 rpm to separate the plasma. The plasma samples were stored at −80° C. The mice were sacrificed with CO2, and the whole brain tissue was taken out, weighed, placed in a 2 mL centrifuge tube and stored at −80° C.
1) 160 μL of acetonitrile was added to 40 μL of the plasma sample for precipitation, and then the mixture was centrifuged for 5-20 minutes at 3500×g.
2) 90 μL of acetonitrile containing the internal standard (100 ng/mL) was added to 30 μL of the plasma and brain homogenate samples for precipitation, and then the mixture was centrifuged for 8 minutes at 13000 rpm.
3) 70 μL of the treated supernatant was taken and added to 70 μL of water, and mixed by vortex for 10 minutes. 20 μL of the mixture was taken to analyze the concentration of the test compound by LC/MS/MS. LC/MS/MS analysis instrument: AB Sciex API 4000 Qtrap.
2.6 Liquid Chromatography Analysis • Liquid chromatography condition: Shimadzu LC-20AD pump. • Chromatographic column: Agilent ZORBAX XDB-C18 (50×2.1 mm, 3.5 μm); Mobile phase: Eluent A was 0.1% formic acid in water, and Eluent B was acetonitrile. • Flow rate: 0.4 mL/min • Elution time: 0-4.0 minutes the eluent is as follows:
The main parameters of pharmacokinetics were calculated by WinNonlin 6.1.

[2] = test system: ICR mice; test: In vivo pharmacodynamic test in the forced swimming model in mice; details: for immobility time during the latter four minutes compared with that of the model group: 10 mg/kg p.o.; for Mean (immobility, %) / Mean (immobility, s): 10 mpk p.o.; for Mean (immobility, %): floating time percentage = 100*floating time/240 s; for Mean (immobility, s): latter four minutes of 6 min swim
Experimental: The antidepressant effect of the compound was evaluated by the forced swimming model in mice.
Male ICR mice (25-35 g) were adapted in the test environment for 3 days before the forced swimming test.
According to the test design, the mice were randomly grouped on the day before the test according to body weight, with 12 mice in each group. Before the test, the compounds of each example were administrated intragastrically according to the Tmax thereof in the brain in mice pharmacokinetic test as follows:
1) Model group (0.5% CMC-Na+1% Tween 80 solution, p.o., 10 mL/kg);
2) Compounds of Example 2, Example 5, Example 7, Example 18, Example 23, Example 26 and Example 50 (10 mg/kg, p.o., 10 mL/kg).
When being administrated, the compounds of each example were suspended in 0.5% CMC-Na-1% Tween 80 solution to the desired concentration.
0.5-1 hour after administration, ICR mice were placed in a forced swimming device (transparent glass drum (water depth 18 cm, water temperature 25-26° C.), one mouse per tank) and forced to swim for 6 minutes. The forced swimming device recorded the floating time of the ICR mice during the entire 6 minutes, and the data of the latter four minutes were used for data analysis. The mice were taken out immediately after the swimming test, wiped dry and put back in their original cages.
Note: The criterion for determining the immobility time is that the mouse stops struggling in water and floats, and there are only slight limb movements to keep the head floating on the water.
3.4 Data Analysis Floating time percentage=100*floating time/240 s.

[3] = Balb/c, in vivo, 5 mg/kg, Area under curve AUC0-t
[4] = Balb/c, in vivo, 5 mg/kg, Half-life t1/2
[5] = Balb/c, in vivo, 5 mg/kg, Mean residence time MRT
[6] = Balb/c, in vivo, 5 mg/kg, Peak time tmax
[7] = Balb/c, in vivo, 5 mg/kg, Plasma concentration Cmax

Row | Structure (SMILES) | immobility time during the latter four minutes compared with that of the model group [2] | Mean (immobility, %) [2] [%] | Mean (immobility, s) [2] [s] | Area under curve AUC0-t ([1]; Balb/c, in vivo, 5 mg/kg) [ng·h/mL] | Half-life t1/2 ([1]; Balb/c, in vivo, 5 mg/kg) [h] | Mean residence time MRT ([1]; Balb/c, in vivo, 5 mg/kg) [h] | Plasma concentration Cmax ([1]; Balb/c, in vivo, 5 mg/kg) [ng/mL] | AUC(0-t) [1, 3] [ng·h/mL] | half-life [1, 4] [h] | MRT [1, 5] [h] | Tmax [1, 6] [h] | Cmax [1, 7] [ng/mL] | also measured
1 | C[C@@]1(O)CC[C@@]2(F)[C@H](CC[C@H]3[C@@H]4CC[C@H](C(=O)Cn5cc(C#N)cn5)[C@@]4(C)CC[C@@H]32)C1 [Example 2, 1-(2-((3R,5R,8S,9S,10R,13S,14S,17S)-10-Fluoro-3-hydroxy-3,13-dimethylhexadecahydro-1H-cyclopenta[a]phenanthren-17-yl)-2-oxoethyl)-1H-pyrazole-4-carbonitrile] | significantly different | 36.39 | 87.34 | – | – | – | – | – | – | – | – | – | AUC(0-t) ([1]; Balb/c, brain, 5 mg/kg, Balb/c mice, 5 mg/kg p.o., brain tissue, read-out: Area under curve AUC0-t): 1770 ng·h/mL; AUC(0-inf) ([1]; Balb/c, brain, 5 mg/kg, Balb/c mice, 5 mg/kg p.o., brain tissue, read-out: Area under curve AUC0-∞): 1790 ng·h/mL; half-life ([1]; Balb/c, brain, 5 mg/kg, Balb/c mice, 5 mg/kg p.o., brain tissue, read-out: Half-life t1/2 (converted)): 1.49 h; MRT ([1]; Balb/c, brain, 5 mg/kg, Balb/c mice, 5 mg/kg p.o., brain tissue, read-out: Mean residence time MRT): 2.26 h; Cmax ([1]; Balb/c, brain, 5 mg/kg, Balb/c mice, 5 mg/kg p.o., brain tissue, read-out: Plasma concentration Cmax): 655 ng/mL; AUC(0-t) ([1]; Balb/c, plasma, 5 mg/kg, Balb/c mice, 5 mg/kg p.o., plasma, read-out: Area under curve AUC0-t): 2660 ng·h/mL; AUC(0-inf) ([1]; Balb/c, plasma, 5 mg/kg, Balb/c mice, 5 mg/kg p.o., plasma, read-out: Area under curve AUC0-∞): 2710 ng·h/mL; half-life ([1]; Balb/c, plasma, 5 mg/kg, Balb/c mice, 5 mg/kg p.o., plasma, read-out: Half-life t1/2 (converted)): 1.49 h; MRT ([1]; Balb/c, plasma, 5 mg/kg, Balb/c mice, 5 mg/kg p.o., plasma, read-out: Mean residence time MRT): 2.49 h; Cmax ([1]; Balb/c, plasma, 5 mg/kg, Balb/c mice, 5 mg/kg p.o., plasma, read-out: Plasma concentration Cmax): 846 ng/mL; Tmax ([1]; Balb/c mice, 5 mg/kg p.o., brain tissue, read-out: Peak time tmax): 1 h; Tmax ([1]; Balb/c mice, 5 mg/kg p.o., plasma, read-out: Peak time tmax): 1 h
2 | C[C@@]1(O)CC[C@@]2(F)[C@H](CC[C@H]3[C@@H]4CC[C@H](C(=O)Cn5ccc(C(F)(F)F)n5)[C@@]4(C)CC[C@@H]32)C1 [Example 5, 1-((3R,5R,8S,9S,10R,13S,14S,17S)-10-Fluoro-3-hydroxy-3,13-dimethylhexadecahydro-1H-cyclopenta[a]phenanthren-17-yl)-2-(3-(trifluoromethyl)-1H-pyrazol-1-yl)ethan-1-one] | very significantly different | 27.11 | 65.07 | 470.9 | 0.94 | 1.74 | 233.7 | 515 | 1.16 | 1.94 | 0.5 | 242 | Area under curve AUC0-∞ ([1]; Balb/c, in vivo, 5 mg/kg): 485.5 ng·h/mL; AUC(0-inf) ([1]; Balb/c, in vivo, 5 mg/kg, Area under curve AUC0-∞): 524 ng·h/mL
3 | C[C@@]1(O)CC[C@@]2(F)[C@H](CC[C@H]3[C@@H]4CC[C@H](C(=O)CNc5ccc(F)cc5)[C@@]4(C)CC[C@@H]32)C1 [Example 23, 1-((3R,5R,8S,9S,10R,13S,14S,17S)-10-Fluoro-3-hydroxy-3,13-dimethylhexadecahydro-1H-cyclopenta[a]phenanthren-17-yl)-2-((4-fluorophenyl)amino)ethan-1-one] | very significantly different | 28.55 | 68.51 | 1067.1 | 1.36 | 2.42 | 558.0 | 545 | 1.08 | 1.78 | 0.5 | 408 | –
